Patent publication US20240226175A1, “THERAPEUTIC AGENT USING GENOME-EDITED PLURIPOTENT STEM CELL” (KEIO UNIVERSITY, priority 2020, published 2024)

Columns and labels:
Format in all cases: cell-based, human
[1] = tested on: glioma cell line U87; test: Antitumor effect in co-culture with 5-FC (CCK-8), U87; conditions: without TSC1/TSC2
Method: (§1) Glioma cell line U87 (1×10^4 cells) or glioma stem cell line hG008 (1×10^4 cells) and TSC1 or TSC2 (5×10^3 cells) were co-cultured for 1 day using a low adhesive 96-well culture plate (Prime Surface 96V, manufactured by Sumitomo Bakelite Co., Ltd.), then 5-FC (2 μg/ml) was added, and cell deaths were assessed using a cell proliferation/cytotoxicity assay kit Cell Counting Kit-8 (CCK-8) 5 days later.

[2] = tested on: glioma stem cell line hG008; test: Antitumor effect in co-culture with 5-FC (CCK-8), hG008; conditions: without TSC1/TSC2
Method: as §1

[3] = tested on: (yCD-NSCs); test: Response of yCD-NSCs to 5-FU; conditions: ACTB (yCD-NSCs)

| Structure (SMILES) | tumor cell death with 5-FC alone [1] | tumor cell death with 5-FC alone [2] | response to 5-FU [3] |
| --- | --- | --- | --- |
| Nc1nc(=O)[nH]cc1F [5-FC, 5-fluorocytosine] | no particular tumor cell death was observed | no particular tumor cell death was observed |  |
| O=c1[nH]cc(F)c(=O)[nH]1 [5-FU, 5-fluorouracil] |  |  | not favorable |
